The source of these data is US4013762A, “Growth promotion” (Richardson-Merrell Inc., priority 1976, dated 1977).

Where two headings read alike, the source gives them in different places.

For series [1], the system named is ten day old leghorn chicks. Kind of series: Chick weight gain, subcutaneous treatment for six days. It counts as in vivo. To be noted: for Weight Gain (g ± S.E.M.): gain during one week, control 52.7 ± 1.6, * significantly different from controls, p <- 0.05.
In a further series the target is T1, androgen receptor (Rattus norvegicus, UniProt P15207).
T1 construct: male rats were castrated and the prostate cytosol was prepared; from tissue; host or cells: prostate cytosol of castrated male rats, prepared 24 to 48 hours after surgery
T1 sequence (P15207 1-902): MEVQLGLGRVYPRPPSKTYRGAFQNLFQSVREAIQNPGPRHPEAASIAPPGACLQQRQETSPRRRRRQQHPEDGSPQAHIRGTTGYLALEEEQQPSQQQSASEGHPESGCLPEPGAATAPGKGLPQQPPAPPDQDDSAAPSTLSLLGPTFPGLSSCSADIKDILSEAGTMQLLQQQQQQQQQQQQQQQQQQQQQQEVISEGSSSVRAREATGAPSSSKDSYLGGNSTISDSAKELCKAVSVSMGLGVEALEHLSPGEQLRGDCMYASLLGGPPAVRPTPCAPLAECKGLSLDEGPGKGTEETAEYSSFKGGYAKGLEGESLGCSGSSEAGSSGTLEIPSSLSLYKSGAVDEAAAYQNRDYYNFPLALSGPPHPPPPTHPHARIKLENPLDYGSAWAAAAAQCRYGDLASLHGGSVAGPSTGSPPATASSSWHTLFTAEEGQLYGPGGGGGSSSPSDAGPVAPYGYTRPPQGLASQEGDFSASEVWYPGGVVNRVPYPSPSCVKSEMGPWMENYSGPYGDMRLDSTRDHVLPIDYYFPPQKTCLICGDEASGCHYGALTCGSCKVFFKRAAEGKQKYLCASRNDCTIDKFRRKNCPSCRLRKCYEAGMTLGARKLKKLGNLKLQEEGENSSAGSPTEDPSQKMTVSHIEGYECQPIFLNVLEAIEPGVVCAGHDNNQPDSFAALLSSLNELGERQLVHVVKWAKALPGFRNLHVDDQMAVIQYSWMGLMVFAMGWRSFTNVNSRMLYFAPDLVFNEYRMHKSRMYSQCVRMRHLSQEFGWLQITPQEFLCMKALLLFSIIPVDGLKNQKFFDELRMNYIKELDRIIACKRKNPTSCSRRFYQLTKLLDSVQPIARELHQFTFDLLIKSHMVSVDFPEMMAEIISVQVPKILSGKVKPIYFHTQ
Briefly: Androgen binding: competitive binding with 3H-testosterone labeled cytosol receptor sites, rat prostate cytosol. From the text:
This binding is the first step necessary for hormonal action.

For series [2], the system named is muscle fiber. Kind of series: Masculinizing effect on the muscle fiber. The series is classed as in vivo. Particulars: applicant's findings.
In series [3] the test system is poultry and ruminants. Briefly: Growth promotion in animals. The series is classed as in vivo. Particulars: applicant's findings.
For series [4] the following is noted: reported in U.S. Pat. Nos. 3,235,573 and 3,449,381; cited from earlier work.
The test system of series [5] is muscle fiber. To be noted: background, known; cited from earlier work.
The test system of series [6] is poultry and ruminants. To be noted: background, known; cited from earlier work.

With `C[C@]12CC[C@H]3[C@@H](CCC4=CC(=O)CC[C@@]43C=O)[C@@H]1CCC2=O` [3,17-Dioxoandrost-4-en-19-al, 3,17-dioxoandrost-4-en-19-al], the “Weight Gain (g ± S.E.M.)” value in series [1] (1 mg/kg/day subcutaneously for six days) turned out to be 58.8 ± 1.4 g; in series [1] (10 mg/kg/day subcutaneously for six days), 63.0 ± 1.1 g; in series [1] (30 mg/kg/day subcutaneously for six days), 74.0 ± 2.6 g. In addition, in series [1] (1.0, 10 and 30 mg/kg/day s.c. six days, compared to untreated control chicks), the “growth rate as measured by weight gain” value was “significant increase in growth rate”. In addition, the “androgen receptor binding” value on androgen receptor (in vitro, androgen target tissue) is reported as “lack of androgen binding affinity”. Moreover, the “% Binding (androgen binding, relative)” value at androgen receptor (relative to 5α-dihydrotestosterone equated to 100, 4 × 10^-6 to 4 × 10^-10 molar, castrated male rat prostate cytosol) was found to be 0.07%.
As for `C[C@]12CC[C@H]3[C@@H](CCC4=CC(=O)CC[C@@]43C=O)[C@@H]1CC[C@@H]2O` [3-oxo-17β-hydroxyandrost-4-en-19-al], in the series on muscle fiber [2], the “masculinizing effect on the muscle fiber” value was “without any masculinizing effect on the muscle fiber”. In the series with poultry and ruminants [3], the “growth promotion” value is recorded as “effective in growth promotion in animals”. For the same molecule, in series [4], the “anabolic-androgenic activity” value was “anabolic-androgenic activity”.
Regarding `CCC(=O)O[C@H]1CC[C@H]2[C@@H]3CCC4=CC(=O)CC[C@]4(C)[C@H]3CC[C@]12C` [testosterone propionate], the “masculinization of the muscle fiber” value with muscle fiber [5] is “masculinization of the muscle fiber”. Also, the “growth promotion” value with poultry and ruminants [6] was “effective in promoting growth in animals”.
For `CSCCC(O)C(=O)O` (stereo not drawn) [α-hydroxy-γ-methylmercaptobutyric acid], the “growth promotion” value in the series with poultry and ruminants [6] is “promote growth by improving feed efficiency”.
